This note sets out measurements from patent publication US8569344B2, “N-piperidinyl acetamide derivatives as calcium channel blockers” (Zalicus Pharmaceuticals Ltd., priority 2008, dated 2013).

The target in assay [1] is T1, human α1H T-type channels (Homo sapiens, UniProt O95180).
T1 construct: expressed in transfected cells; host or cells: HEK 293
Briefly: T-type calcium channel block, whole cell patch clamp in HEK cells (α1H). As to conditions: HEK cells, patch clamp, mainly non-inactivated protocol; values above 10 μM shown as 10 μM; read-out: T-type Calcium Channel Block α1H IC50. Type of assay: cell-based. A general note: The patch-clamp technique gives a direct electrical read-out from membranes.

The target in assay [2] is T2, human α1G T-type channels (Homo sapiens, UniProt O43497).
T2 construct: expressed in transfected cells; host or cells: HEK 293
Briefly: T-type calcium channel block, whole cell patch clamp in HEK cells (α1G). The class given is cell-based. As to conditions: HEK cells, patch clamp, mainly non-inactivated protocol; values above 10 μM shown as 10 μM, below 0.30 μM shown as 0.30 μM; read-out: T-type Calcium Channel Block α1G IC50.

Some results are limits rather than exact numbers.

T1 sequence (O95180 whole entry): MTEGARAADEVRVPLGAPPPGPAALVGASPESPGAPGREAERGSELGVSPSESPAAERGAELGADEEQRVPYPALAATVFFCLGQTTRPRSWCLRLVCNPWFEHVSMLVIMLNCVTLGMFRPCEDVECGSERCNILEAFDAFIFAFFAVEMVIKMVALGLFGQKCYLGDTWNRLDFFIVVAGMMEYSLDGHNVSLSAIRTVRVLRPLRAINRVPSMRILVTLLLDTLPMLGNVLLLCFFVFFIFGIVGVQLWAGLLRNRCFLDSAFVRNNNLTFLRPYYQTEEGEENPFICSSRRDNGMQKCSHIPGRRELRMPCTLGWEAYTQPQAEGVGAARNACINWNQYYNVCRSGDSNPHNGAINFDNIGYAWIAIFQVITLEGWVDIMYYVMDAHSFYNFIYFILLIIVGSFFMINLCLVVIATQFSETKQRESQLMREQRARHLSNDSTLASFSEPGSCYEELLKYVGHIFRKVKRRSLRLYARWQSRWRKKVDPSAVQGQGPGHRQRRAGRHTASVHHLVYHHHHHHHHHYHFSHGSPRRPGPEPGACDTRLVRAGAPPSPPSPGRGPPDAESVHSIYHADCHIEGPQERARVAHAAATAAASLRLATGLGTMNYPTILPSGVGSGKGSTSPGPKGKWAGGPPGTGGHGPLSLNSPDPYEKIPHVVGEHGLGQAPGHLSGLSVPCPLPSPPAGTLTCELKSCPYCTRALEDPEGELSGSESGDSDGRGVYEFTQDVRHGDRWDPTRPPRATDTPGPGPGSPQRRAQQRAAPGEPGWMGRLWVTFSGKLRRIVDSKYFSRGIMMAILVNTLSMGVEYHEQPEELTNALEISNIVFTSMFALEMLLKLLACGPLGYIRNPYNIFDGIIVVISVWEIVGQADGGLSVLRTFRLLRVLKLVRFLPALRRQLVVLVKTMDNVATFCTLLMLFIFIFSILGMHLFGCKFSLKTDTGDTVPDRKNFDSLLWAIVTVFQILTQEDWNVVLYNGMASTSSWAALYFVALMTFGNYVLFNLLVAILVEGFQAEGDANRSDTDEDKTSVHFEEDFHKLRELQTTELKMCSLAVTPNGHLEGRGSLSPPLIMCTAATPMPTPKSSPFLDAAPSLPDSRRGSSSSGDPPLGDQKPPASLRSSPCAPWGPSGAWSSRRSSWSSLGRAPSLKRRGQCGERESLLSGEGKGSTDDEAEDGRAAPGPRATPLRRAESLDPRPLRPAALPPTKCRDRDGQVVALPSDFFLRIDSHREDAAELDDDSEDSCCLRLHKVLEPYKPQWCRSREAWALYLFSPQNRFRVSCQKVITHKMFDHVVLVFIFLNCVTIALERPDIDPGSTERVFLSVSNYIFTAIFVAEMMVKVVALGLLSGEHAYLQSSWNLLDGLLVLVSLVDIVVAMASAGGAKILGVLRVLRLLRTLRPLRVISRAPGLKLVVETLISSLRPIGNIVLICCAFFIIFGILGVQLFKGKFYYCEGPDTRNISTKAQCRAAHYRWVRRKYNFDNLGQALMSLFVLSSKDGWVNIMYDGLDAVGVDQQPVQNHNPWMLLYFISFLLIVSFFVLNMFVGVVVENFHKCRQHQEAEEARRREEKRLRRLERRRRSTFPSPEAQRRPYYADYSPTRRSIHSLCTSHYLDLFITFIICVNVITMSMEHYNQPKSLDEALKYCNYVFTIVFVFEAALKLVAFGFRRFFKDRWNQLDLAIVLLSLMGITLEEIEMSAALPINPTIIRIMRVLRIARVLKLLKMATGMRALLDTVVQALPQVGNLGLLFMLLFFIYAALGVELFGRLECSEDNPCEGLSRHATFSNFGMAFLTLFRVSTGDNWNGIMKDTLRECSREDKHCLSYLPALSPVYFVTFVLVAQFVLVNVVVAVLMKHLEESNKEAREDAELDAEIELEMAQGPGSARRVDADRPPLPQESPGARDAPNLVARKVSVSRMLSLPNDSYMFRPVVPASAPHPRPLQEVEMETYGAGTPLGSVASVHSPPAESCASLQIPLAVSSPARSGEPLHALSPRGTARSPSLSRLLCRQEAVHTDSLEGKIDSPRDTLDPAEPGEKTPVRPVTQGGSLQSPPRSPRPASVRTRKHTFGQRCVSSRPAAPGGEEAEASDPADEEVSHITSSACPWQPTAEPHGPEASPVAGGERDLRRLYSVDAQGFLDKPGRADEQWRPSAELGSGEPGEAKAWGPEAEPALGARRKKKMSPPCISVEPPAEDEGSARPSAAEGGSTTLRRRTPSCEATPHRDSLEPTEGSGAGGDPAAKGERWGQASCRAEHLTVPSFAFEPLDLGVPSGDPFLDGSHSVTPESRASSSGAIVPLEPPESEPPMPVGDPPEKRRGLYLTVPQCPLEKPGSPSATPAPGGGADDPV
T2 sequence (O43497 whole entry): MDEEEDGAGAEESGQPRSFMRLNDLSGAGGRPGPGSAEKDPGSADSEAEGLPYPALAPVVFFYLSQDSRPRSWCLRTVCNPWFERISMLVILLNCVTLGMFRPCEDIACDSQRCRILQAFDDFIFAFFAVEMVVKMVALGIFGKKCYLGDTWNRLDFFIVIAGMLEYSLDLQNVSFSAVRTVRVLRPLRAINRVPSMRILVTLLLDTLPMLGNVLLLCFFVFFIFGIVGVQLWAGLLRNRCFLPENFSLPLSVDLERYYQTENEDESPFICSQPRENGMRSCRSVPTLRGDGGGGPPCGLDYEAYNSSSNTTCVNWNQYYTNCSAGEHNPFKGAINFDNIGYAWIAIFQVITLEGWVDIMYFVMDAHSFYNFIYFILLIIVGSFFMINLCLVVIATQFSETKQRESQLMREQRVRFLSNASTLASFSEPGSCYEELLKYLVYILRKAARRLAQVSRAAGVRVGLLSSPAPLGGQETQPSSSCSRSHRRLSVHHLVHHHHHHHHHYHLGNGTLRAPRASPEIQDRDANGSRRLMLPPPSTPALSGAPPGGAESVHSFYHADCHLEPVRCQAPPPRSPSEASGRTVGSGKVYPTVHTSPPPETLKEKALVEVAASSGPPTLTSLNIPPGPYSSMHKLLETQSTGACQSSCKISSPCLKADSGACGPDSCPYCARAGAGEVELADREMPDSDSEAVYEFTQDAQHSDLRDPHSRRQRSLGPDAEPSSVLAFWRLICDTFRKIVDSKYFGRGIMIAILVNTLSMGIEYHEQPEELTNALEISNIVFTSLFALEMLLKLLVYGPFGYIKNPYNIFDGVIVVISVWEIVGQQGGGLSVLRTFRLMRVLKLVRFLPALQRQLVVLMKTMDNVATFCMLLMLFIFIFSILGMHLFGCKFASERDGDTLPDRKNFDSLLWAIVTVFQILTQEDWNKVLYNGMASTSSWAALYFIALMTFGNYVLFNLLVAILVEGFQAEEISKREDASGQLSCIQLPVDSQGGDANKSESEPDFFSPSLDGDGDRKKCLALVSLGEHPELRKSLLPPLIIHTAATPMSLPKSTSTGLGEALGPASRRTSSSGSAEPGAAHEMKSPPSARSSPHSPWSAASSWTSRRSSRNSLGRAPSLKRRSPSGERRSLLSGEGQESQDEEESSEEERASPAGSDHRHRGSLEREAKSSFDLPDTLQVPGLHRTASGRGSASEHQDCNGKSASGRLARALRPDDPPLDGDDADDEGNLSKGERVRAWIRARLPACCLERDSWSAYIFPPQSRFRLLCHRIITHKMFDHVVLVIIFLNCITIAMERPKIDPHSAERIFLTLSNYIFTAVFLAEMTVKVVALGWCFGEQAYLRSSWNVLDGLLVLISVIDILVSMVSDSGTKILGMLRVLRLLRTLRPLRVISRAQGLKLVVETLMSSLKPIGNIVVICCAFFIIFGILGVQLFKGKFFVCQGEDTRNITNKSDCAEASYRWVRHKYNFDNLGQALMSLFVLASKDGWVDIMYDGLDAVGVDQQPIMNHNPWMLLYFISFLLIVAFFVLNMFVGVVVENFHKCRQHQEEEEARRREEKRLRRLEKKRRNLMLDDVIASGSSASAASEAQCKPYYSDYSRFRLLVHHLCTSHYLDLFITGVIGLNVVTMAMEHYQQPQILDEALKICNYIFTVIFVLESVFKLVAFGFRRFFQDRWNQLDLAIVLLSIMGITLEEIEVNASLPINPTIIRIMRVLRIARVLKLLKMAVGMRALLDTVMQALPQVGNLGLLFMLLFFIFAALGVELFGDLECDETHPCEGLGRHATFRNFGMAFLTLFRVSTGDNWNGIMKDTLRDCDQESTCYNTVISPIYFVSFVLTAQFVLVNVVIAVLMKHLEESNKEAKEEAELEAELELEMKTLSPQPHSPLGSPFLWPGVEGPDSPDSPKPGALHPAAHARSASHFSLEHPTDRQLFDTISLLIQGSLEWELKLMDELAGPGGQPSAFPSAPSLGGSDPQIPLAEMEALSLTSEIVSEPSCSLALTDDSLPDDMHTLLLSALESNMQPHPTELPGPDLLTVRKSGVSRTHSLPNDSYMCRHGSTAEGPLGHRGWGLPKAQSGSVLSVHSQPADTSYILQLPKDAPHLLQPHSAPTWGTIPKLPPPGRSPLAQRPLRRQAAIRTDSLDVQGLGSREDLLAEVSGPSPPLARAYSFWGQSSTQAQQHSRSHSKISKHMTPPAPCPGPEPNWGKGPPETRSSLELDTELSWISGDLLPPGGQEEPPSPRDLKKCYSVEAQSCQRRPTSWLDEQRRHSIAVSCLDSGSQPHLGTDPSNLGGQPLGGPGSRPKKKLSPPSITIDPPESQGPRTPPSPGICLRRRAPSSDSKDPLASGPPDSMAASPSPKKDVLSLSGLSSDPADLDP

As to `Cc1cc(C)cc(C(=O)NCC2CCN(CCNC(=O)C(C)(C)C)CC2)c1` [Compound 295, 3,5-dimethyl-N-((1-(2-pivalamidoethyl)piperidin-4-yl)methyl)benzamide], the values for the IC50 in assay [1] and in assay [2] were 1260 nM and 1340 nM, respectively.

With `CC(C)(C)C(=O)NCCN1CCC(CNC(=O)c2cccc(C(F)(F)F)c2)CC1` [Compound 296, N-((1-(2-pivalamidoethyl)piperidin-4-yl)methyl)-3-(trifluoromethyl)benzamide], the IC50 in assay [1] was found to be 1100 nM; in assay [2], 610 nM.

Take `CC(C)(C)C(=O)NCCN1CCC(CNC(=O)/C=C/c2cc(F)cc(F)c2)CC1` [Compound 297, (E)-3-(3,5-difluorophenyl)-N-((1-(2-pivalamidoethyl)piperidin-4-yl)methyl)acrylamide]: the IC50 in assay [1] and in assay [2] was above 10000 nM in each case.

On to `CC(C)(C)C(=O)NCCN1CCC(CNC(=O)c2cc(Cl)cc(Cl)c2)CC1` [Compound 298, 3,5-dichloro-N-((1-(2-pivalamidoethyl)piperidin-4-yl)methyl)benzamide], for which the IC50 in assay [1] was 280 nM; in assay [2] it was below 300 nM.

Consider `CC(C)(C)C(=O)NCCN1CCC(CNC(=O)c2cccc(Cl)c2)CC1` [Compound 299, 3-chloro-N-((1-(2-pivalamidoethyl)piperidin-4-yl)methyl)benzamide], for which the IC50 in assay [1] was 1980 nM; in assay [2], 1210 nM.

Take `CC(C)(C)C(=O)NCCN1CCC(CNC(=O)/C=C/c2cc(Cl)cc(Cl)c2)CC1` [Compound 300, (E)-3-(3,5-dichlorophenyl)-N-((1-(2-pivalamidoethyl)piperidin-4-yl)methyl)acrylamide]: the IC50 is 3250 nM in assay [1] and 2810 nM in assay [2].

For `CC(C)(C)C(=O)NCCN1CCC(CNC(=O)c2cc(Cl)cc(C(F)(F)F)c2)CC1` [Compound 301, 3-chloro-N-((1-(2-pivalamidoethyl)piperidin-4-yl)methyl)-5-(trifluoromethyl)benzamide], the IC50 is 450 nM in assay [1] and below 300 nM in assay [2].

As to `CC(C)(C)C(=O)NCCN1CCC(CNC(=O)c2cc(Br)cc(C(F)(F)F)c2)CC1` [Compound 302, 3-bromo-N-((1-(2-pivalamidoethyl)piperidin-4-yl)methyl)-5-(trifluoromethyl)benzamide], the IC50 is 300 nM in assay [1] and below 300 nM in assay [2].

On to `COc1cc(C(=O)NCC2CCN(CCNC(=O)C(C)(C)C)CC2)cc(C(F)(F)F)c1` [Compound 303, 3-methoxy-N-((1-(2-pivalamidoethyl)piperidin-4-yl)methyl)-5-(trifluoromethyl)benzamide], for which the IC50 in assay [1] is 600 nM; in assay [2], below 300 nM.

In the case of `CC(C)(C#N)NC(=O)CN1CCC(CNC(=O)c2cc(C(F)(F)F)cc(C(F)(F)F)c2)CC1` [Compound 304, N-((1-(2-(2-cyanopropan-2-ylamino)-2-oxoethyl)piperidin-4-yl)methyl)-3,5-bis(trifluoromethyl)benzamide], the IC50 in assay [1] was 370 nM; in assay [2], below 300 nM.

On to `CCOC1CCN(C(=O)CN2CCC(CNC(=O)c3cc(C(F)(F)F)cc(C(F)(F)F)c3)CC2)CC1` [Compound 305, N-((1-(2-(4-ethoxypiperidin-1-yl)-2-oxoethyl)piperidin-4-yl)methyl)-3,5-bis(trifluoromethyl)benzamide], for which the IC50 in assay [1] was 4450 nM; in assay [2] it was 7420 nM.

Consider `O=C(NCC1CCN(CCNS(=O)(=O)C2CCC2)CC1)c1cc(F)cc(C(F)(F)F)c1` [Compound 306, N-((1-(2-(cyclobutanesulfonamido)ethyl)piperidin-4-yl)methyl)-3-fluoro-5-(trifluoromethyl)benzamide], for which the IC50 in assay [1] was 390 nM; in assay [2], 340 nM.

With `O=C(NCC1CCN(CCNS(=O)(=O)C2CCCC2)CC1)c1cc(F)cc(C(F)(F)F)c1` [Compound 307, N-((1-(2-(cyclopentanesulfonamido)ethyl)piperidin-4-yl)methyl)-3-fluoro-5-(trifluoromethyl)benzamide], the IC50 is 340 nM in assay [1] and below 300 nM in assay [2].

For `O=C(NCC1CCN(CCNS(=O)(=O)CCCF)CC1)c1cc(F)cc(C(F)(F)F)c1` [Compound 308, 3-fluoro-N-((1-(2-(3-fluoropropylsulfonamido)ethyl)piperidin-4-yl)methyl)-5-(trifluoromethyl)benzamide], the IC50 in assay [1] was found to be 880 nM; in assay [2], 1230 nM.

Turning to `CC(C)(C)C(=O)NCCN1CCC(CNC(=O)c2cc(F)cc(Cl)c2)CC1` [Compound 309, 3-chloro-5-fluoro-N-((1-(2-pivalamidoethyl)piperidin-4-yl)methyl)benzamide], the IC50 in assay [1] came out at 350 nM; in assay [2] it was 850 nM.

Take `CC(C)(C)C(=O)NCCN1CCC(CNC(=O)c2cc(C(F)(F)F)ccn2)CC1` [Compound 310, N-((1-(2-pivalamidoethyl)piperidin-4-yl)methyl)-4-(trifluoromethyl) picolinamide]: the half-maximal inhibitory concentration (IC50) in assay [1] and in assay [2] was above 10000 nM each time.

As for `O=C(CCC(F)(F)F)NCCN1CCC(CNC(=O)c2cccc(OC(F)(F)F)c2)CC1` [Compound 311, N-((1-(2-(4,4,4-trifluorobutanamido)ethyl)piperidin-4-yl)methyl)-3-(trifluoromethoxy) benzamide], the IC50 in assay [1] came to 330 nM; in assay [2] it was 2650 nM.

Take `Cc1cc(C)cc(C(=O)NCC2CCN(CCNC(=O)CCC(F)(F)F)CC2)c1` [Compound 312, 3,5-dimethyl-N-((1-(2-(4,4,4-trifluorobutanamido)ethyl)piperidin-4-yl)methyl)benzamide]: the IC50 worked out at 750 nM in assay [1] and 4260 nM in assay [2].

With `O=C(CCC(F)(F)F)NCCN1CCC(CNC(=O)c2cccc(C(F)(F)F)c2)CC1` [Compound 313, N-((1-(2-(4,4,4-trifluorobutanamido)ethyl)piperidin-4-yl)methyl)-3-(trifluoromethyl)benzamide], the IC50 in assay [1] was determined as 620 nM; in assay [2] it was 6310 nM.

Regarding `O=C(/C=C/c1cc(F)cc(F)c1)NCC1CCN(CCNC(=O)CCC(F)(F)F)CC1` [Compound 314, (E)-N-(2-(4-((3-(3,5-difluorophenyl)acrylamido)methyl)piperidin-1-yl)ethyl)-4,4,4-trifluorobutanamide], the IC50 in assay [1] is 9240 nM; in assay [2], above 10000 nM.

As to `O=C(CCC(F)(F)F)NCCN1CCC(CNC(=O)c2cccc(Cl)c2)CC1` [Compound 315, 3-chloro-N-((1-(2-(4,4,4-trifluorobutanamido)ethyl)piperidin-4-yl)methyl)benzamide], the figures for the IC50 in assay [1] and in assay [2] were 1470 nM and 9900 nM, respectively.

With `O=C(/C=C/c1cc(Cl)cc(Cl)c1)NCC1CCN(CCNC(=O)CCC(F)(F)F)CC1` [Compound 316, (E)-N-(2-(4-((3-(3,5-dichlorophenyl)acrylamido)methyl)piperidin-4-1-yl)ethyl)-4,4,4-trifluorobutanamide], the figures for the IC50 in assay [1] and in assay [2] were 5830 nM and above 10000 nM, respectively.

For the compound `COc1cc(C(=O)NCC2CCN(CCNC(=O)CCC(F)(F)F)CC2)cc(C(F)(F)F)c1` [Compound 317, 3-methoxy-N-((1-(2-(4,4,4-trifluorobutanamido)ethyl)piperidin-4-yl)methyl)-5-(trifluoromethyl)benzamide], the IC50 in assay [1] worked out at 560 nM; in assay [2] it was 660 nM.

In general, IC50 refers to the concentration needed to halve the response being measured.
